Experimental data from patent US4444767A, “Derivatives of 3-amino-pregn-5-ene” (Roussel Uclaf, priority 1981, dated 1984).
Structures can show the parent of a compound that is named as a salt.

What was measured:
mice = assay: Acute toxicity; format: in vivo; conditions: oral
immunitary systems = assay: Test of Rosettes to sheep red corpuscles; format: in vivo; conditions: Rattus norvegicus, Splenocyte; 3 month old male rats, oral daily from day -1 to day 1; splenocytes after 7 days; read-out: immunostimulating dose (dose which multiplies by 2 the percentage of rosettes observed in the control animals)
Method: The administration to animals of a product capable of stimulating the immunitary systems leads to an increase of their capacity of reaction to the injection of a immunogenic product. 3 month old male rats were sensitized by intraperitoneal administration of sheep erythrocytoes on day 0 and 7 days later, the spleen was removed and splenocytes were placed in contact with sheep erythrocytes. The percentage of leucocytes around which the erythrocytes were in the form of rosettes was determined. The test compounds were orally administered daily from day-1 to day 1 and immunostimulating dose is the dose of product which multiplies by 2 the percentage of rosettes observed in the control animals.

Row | Compound | LD0 (maximum dose which did not cause any mortality after 8 days) (mice) [mg/kg] | ED (2-fold rosettes) (immunitary systems) [mg/kg]
1 | C[C@H](O)[C@H]1CC[C@H]2[C@@H]3CC=C4C[C@H](NC(=O)CN)CC[C@]4(C)[C@H]3CC[C@]12C.Cl [Example 6, 2-amino-N-[(20S) 20-hydroxy-pregn-5-ene-3α-yl]-acetamide hydrochloride] | > 400 | –
2 | CC(=O)[C@H]1CC[C@H]2[C@@H]3CC=C4C[C@H](NC(=O)[C@H](C)N)CC[C@]4(C)[C@H]3CC[C@]12C [Example 3, (2S)-2-amino-N-(20-oxopregn-5-ene 3α-yl)propionamide hydrochloride] | > 400 | 2
3 | CC(=O)[C@H]1CC[C@H]2[C@@H]3CC=C4C[C@H](NC(=O)CN)CC[C@]4(C)[C@H]3CC[C@]12C [Example 4, 2-amino N-(20 oxopregn-5-ene 3α-yl) acetamide hydrochloride] | 600 | 5
